Results from patent publication US8410116B2, “Bis(styryl)pyrimidine or bis(styryl)benzene compounds, pharmaceutically acceptable salts thereof, preparation method thereof, and pharmaceutical composition for prevention or treatment of diseases featuring amyloids comprising the same as an active ingredient” (Korea Institute of Science and Technology, priority 2009, dated 2013).

Columns and labels:
beta amyloid (1-40) = test: ELISA for beta amyloid (1-40) in cerebra of transgenic mice; format: in vivo; conditions: 11 months old transgenic mice, versus control
Experimental: (§1) In order to examine whether this effect resulted from inhibitory activity against the deposition of beta amyloid or from a decrease in the level of beta amyloid, the cerebra of the transgenic mice were immunohistochemically analyzed. In this regard, after being removed from the transgenic mice which were 11 months old upon completion of the behavior test, the right cerebral hemispheres were measured for amyloid plaque levels in the cerebral cortex and hippocampus using an immunostaining or ELISA (Enzyme-linked immunosorbent assay) method.
(§2) Amyloid plaques were stained with Congo red and counted. […] FIG. 4D gives neuronal cell count data, showing a larger crowd in the group treated with the compound of Example 1.

[1] = test system: beta amyloid (1-42) injected mice; test: Water maze test, acute Alzheimer's disease model; format: in vivo; conditions: mice injected with beta amyloid (1-42), Days 3 to 7
Experimental: (§3) Mice 4-5 weeks old, each weighing 20˜25 g, were divided into groups of six. Intracerebroventricular injection was performed with a 50 μl Hamilton microsyringe fitted with a disposable 26-gauge needle as described by Laursen and Belknap (Laursen & Belknap, J. Pharmacol. Methods. 1986, 16, 355). It was inserted 2.4 mm deep into the bregma. All samples were administered to groups of 10 via oral routes or food pellets. After the intracerebroventricular injection, the compounds of the present invention were administered for 2 days to the mice which were then subjected to the Y-maze test on Day 2, the cognition test on Days 2 and 3, the passive avoidance test on Days 3 and 4, and the water maze test on Days 3 to 7. All data were averages of 6 measurements (mice).
In a water maze test, a mouse, when released from a randomly selected quadrant on each trial, was allowed to swim around the pool in search of an exit while the time taken to reach the platform (latency) was recorded.

[2] = test system: HT-22 cells incubated with beta amyloid (Aβ25-35); test: Alleviating effect on beta amyloid toxicity in HT-22 cells (MTT); format: cell-based, murine; conditions: Mus musculus, compound pre-incubated 1 hr, then 25 μM beta amyloid (Aβ25-35) for 18 hrs, Aβ25-35 line = toxin alone, read-out: Cell Survival (%)
Experimental: (§4) The murine hippocampal neuronal cell line HT-22 was incubated at 37° C. in DMEM (Dulbecco's Modified Eagle's Medium) supplemented with 10% FBS (fetal bovine serum) and 1% penicillin/streptomycin in a 5% CO2 incubator. Before testing, HT-22 cells were seeded at a density of 5×10^3 cells/well onto 96-well plates containing serum-free DMEM and incubated for 1 hr. Afterwards, each of the compounds of Examples 1 to 27 was added at a concentration of 25 μM to each well before incubation for 18 hrs. 5 mg/ml MTT (3-(4,5-dimethyl-2-thiozolyl)-2,5-diphenyl-2H-tetrazolium bromide) solution was added in an amount of 15 μl per well and incubated for 4 hrs. A solubilization solution (10% SDS, 50% dimethylformamide, pH 4.7) was added in an amount of 100 μl to each well, followed by incubation for 18 hrs. Absorbance at 570 nm/630 nm was read on a microplate reader.
The following experiment was performed in order to examine the ability of the compounds of the Examples in accordance with the present invention to alleviate beta amyloid toxicity. HT-22 cells were cultured and incubated with the compounds of Examples 1 to 27 for 1 hr in the same manner as in Example 2. Cell necrosis was induced by beta amyloid toxicity. For this, the cells were incubated with 25 μM of beta amyloid (Aβ25-35) for 18 hrs. Subsequently, a 5 mg/ml MTT solution was added in an amount of 15 μl to each well, followed by incubation for 4 hrs. Then, the cells were again incubated for 18 hrs with 100 μl/well of the solubilization solution. Absorbance at 570 nm/630 nm was read on a microplate reader.

[3] = test system: double transgenic mice with mutations in both APP and presenilin 1; test: Context fear conditioning in transgenic mice; format: in vivo
Experimental: (§5) Double transgenic mice with mutations in both APP and presenilin 1 were used for the tests. The double transgenic mice, each weighing 26-39 g, were eight months old. They were divided into groups of 10 and administered for 2 to 3 months with the compound of Example 1 through food pellets (3 mg/pellet) before conducting the behavior tests.
A memory test was performed in context fear conditioning. Five trials of tone-shock pairing of CS-US (conditioned stimulus-unconditioned stimulus) were given to mice. On the next day, the mice were left in the stimulated context under no stimulus conditions and observed for freezing. […] During the test, there was no difference in average body weight between the two groups.

[4] = test system: beta amyloid (1-42) injected mice; test: Passive avoidance test, acute Alzheimer's disease model; format: in vivo; parameters: Passive Avoidance % of control: concentration or dose not given beside the values
Experimental: as §3
(§6) A passive avoidance test was performed as described in the literature (Song et al. J. Neurochem., 1998, 71, 875). Used was a passive avoidance box which was divided into two compartments: a lighted one and a dark one, separated by an automatic guillotine door. For training, mice were placed in the lighted compartment and electrically shocked with 0.25 mA for 1 sec whenever they entered the darkened compartment. 24 hours after training, the mice were placed in the lighted compartment and measured for latency time before entering the darkened compartment.

[5] = test system: double transgenic mice with mutations in both APP and presenilin 1; test: Y-maze task and cognitive performance tests in transgenic mice; format: in vivo; conditions: food pellets (3 mg/pellet) for 2 months, 10 month old transgenic mice
Experimental: as §5
After administration of the compound of Example 1 for 2 months (for 10 month old mice), the mice were tested for learning and memory through the Y-maze task and cognitive performance tests.

amyloid plaques = test: Amyloid plaque counts (Congo red) in cerebra of transgenic mice; format: in vivo; conditions: cerebral cortex and hippocampus, 11 months old transgenic mice, versus control
Experimental: as §1, §2

HT-22 cells = test: Cytotoxicity in HT-22 cell (MTT); format: cell-based, murine; conditions: compound 25 μM, 18 hrs
Experimental: The following experiment was performed with HT-22 cells in order to examine the cytotoxicity of the compounds of the Examples in accordance with the present invention.
as §4

beta amyloid (1-42) [6] = test: ELISA for beta amyloid (1-42) in cerebra of transgenic mice; format: in vivo; conditions: 11 months old transgenic mice, versus control
Experimental: as §1, §2

beta amyloid (1-42) [7] = molecular target: beta amyloid (1-42) (Homo sapiens, UniProt P05067); test: Inhibitory activity against beta amyloid fibril formation (ThT fluorescence); format: biochemical; conditions: compound 10 μM, beta amyloid (1-42) 25 μM, 1 hr room temperature, beta amyloid alone (control) = 100
Sequence of beta amyloid (1-42) (Homo sapiens, UniProt P05067) (P05067 672-713 limits assumed): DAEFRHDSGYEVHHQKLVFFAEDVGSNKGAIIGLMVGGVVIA
Experimental: The compounds of the present invention were assayed for inhibitory activity against the formation of beta amyloid fibrils as a function of ThT fluorescence intensity as follows. Beta amyloid (1-42) and each of the compounds of Examples 1 to 27 were dissolved in DMSO and diluted with PBS (phosphate-buffered saline, pH 7.4). The final concentrations of beta amyloid (1-42) (control) and each of the compounds of Examples 1 to 27 were set at 25 μM and 10 μM, respectively. The dilutions were incubated at room temperature for 1 hr before a solution of thioflavin T (ThT, 5 μM, pH 8.5) in glycin-NaOH buffer was added thereto. Fluorescence was measured at 450 nm for excitation (slit 10 nm) and […] for emission (slit 10 nm) on 96-well microplates using a multilabel fluorescence counter.

[8] = test system: beta amyloid (1-42) injected mice; test: Cognitive performance task, acute Alzheimer's disease model; format: in vivo; parameters: Cognition % of control: concentration or dose not given beside the values
Experimental: as §3
(§7) For the cognitive performance task, two identical substances were respectively placed 5 cm apart from two corners and the time it took for a mouse to investigate the given and new substances was measured. Investigation was defined as the condition in which a mouse sniffed with the head directing toward the substance within a diameter of 2 cm or touched the substance.

[9] = test system: beta amyloid (1-42) injected mice; test: Y-maze task, acute Alzheimer's disease model; format: in vivo; conditions: mice i.c.v. injected with beta amyloid (1-42), compounds administered for 2 days, test on Day 2
Experimental: as §3
(§8) Short-term memory was assessed by spontaneous alternation behavior in the Y-maze task. Spontaneous alternation behavior is considered to reflect spatial working memory, which is a form of short-term memory. A mouse was placed in one arm of a Y-maze and allowed to freely pass the three arms for 8 min. Spontaneous alternation behavior was defined as successive entries into the three arms. Percentage spontaneous alternation was calculated as the ratio of actual to possible alternations […], multiplied by 100.

[10] = test system: beta amyloid (1-42) injected mice; test: Behavior tests with acute AD model taken together (Y-maze, cognitive performance, passive avoidance); format: in vivo
Experimental: as §3, §8, §7, §6

neurons = test: Neuronal cell count in cerebra of transgenic mice; format: in vivo; conditions: 11 months old transgenic mice, versus control
Experimental: as §1, §2

COc1ccc(/C=C/c2cc(/C=C/c3ccc(OC)c(O)c3)ncn2)cc1O [Ex. 1, (E,E)-4,6-Bis(3′-hydroxy-4′-methoxystyryl)pyrimidine]
Level of beta amyloid (1-40), ELISA, FIG. 4B (beta amyloid (1-40)): decreasing pattern | Spatial learning ability in water maze (latency over sessions), FIG. 1 [1]: recover spatial learning ability | viability at 25 µM [2]: 91.8 ± 8.8% | Average body weight ([3]; transgenic mice during the test, treated versus control group): no difference | Freezing in context fear conditioning, FIG. 3C ([3]; transgenic mice, compared to control): longer time freezing | Improvement in passive avoidance performance ([4]; compared to beta amyloid (1-42) injected mice, % of control): highest improvement | Passive Avoidance % of control ([4]; latency relative to control mice): 80.9% | Passive Avoidance Latency ([4]; mice i.c.v. injected with beta amyloid (1-42), test on Days 3 and 4, 24 hours after training): 144.2 s | Learning and memory in Y-maze and cognitive performance, FIGS. 3A and 3B [5]: memory impairment was alleviated | Counts of amyloid plaques stained with Congo red, FIG. 4A (amyloid plaques): smaller | Cell Survival (%) (HT-22 cells): 135.6 ± 6.1% | Level of beta amyloid (1-42), ELISA, FIG. 4C (beta amyloid (1-42) [6]): decreasing pattern | remaining activity at 10 µM (beta amyloid (1-42) [7]): 19.1 ± 0.6% | Cognition Preference (investigation time for new matter/total investigation time) ([8]; mice i.c.v. injected with beta amyloid (1-42), test on Days 2 and 3): 0.59 ± 0.03 | Cognition % of control ([8]; preference relative to control mice): 92% | Y-Maze Spontaneous Alternation (%) [9]: 72.2% | Learning and memory improvement, dose dependence, FIG. 2 ([10]; 50, 100, 200 mg/kg p.o., Y-maze, cognitive performance, passive avoidance): dose-dependent manner | Memory and learning of beta amyloid (1-42) injected mice (in words) ([10]; data of Table 6, with statistical significance): increased memory | Neuronal cell count, FIG. 4D (neurons): larger crowd
